The values that follow come from patent US10167264B2, “Substituted pyrimidines useful as EGFR-T790M kinase inhibitors” (JIANGSU MEDOLUTION LTD, priority 2014, dated 2019).

pIC50, pKd: −log10 of the molar value. “Also recorded” adds a separate entry of the source.

One experiment concerns NCI-H1975. Put plainly: Cell proliferation assay (MTT) against cancer cell line NCI-H1975. The class given is cell-based. As to conditions: Homo sapiens, NCI-H1975, 72 hours treatment, quantity not given. As to the method:
A Representative Number of Compounds were Assayed Against Cancer Cell Lines NCI-H1975, Using the Cell Proliferation Assay:
1. 5×10^3 cells per well in 100 μl of medium were seeded in 96-well plate, while the medium contained 5% FBS
2. 24 hours later, 100 μl fresh medium was added with various concentrations of compounds into each well, while the medium here was free of FBS
3. After the cells were treated with compounds for 72 hours, 20 μl MTT (5 mg/ml) was added into each well, and then the assay plate was incubated at 37° C. for 4 more hours.
4. The assay plate was centrifuged at 800 g for 10 min. The medium was aspirated, 150 μl DMSO was added into each well. The plate was gently shaken for 10 min.
5. The absorbance at 570 nm was measured on the plate reader.

For a further experiment, the target named is EGFR (T790M/L858R) (Homo sapiens (Human), UniProt P00533, L858R/T790M). The experiment is described as follows: In vitro EGFR (T790M/L858R) kinase binding assay (Kd, qPCR readout). As to the method: (§1) Kinase-tagged T7 phage strains were prepared in an E. coli host derived from the BL21 strain. E. coli were grown to log-phase and infected with T7 phage and incubated with shaking at 32° C. until lysis. The lysates were centrifuged and filtered to remove cell debris. The remaining kinases were produced in HEK-293 cells and subsequently tagged with DNA for qPCR detection. Streptavidin-coated magnetic beads were treated with biotinylated small molecule ligands for 30 minutes at room temperature to generate affinity resins for kinase assays. The liganded beads were blocked with excess biotin and washed with blocking buffer (SeaBlock (Pierce), 1% BSA, 0.05% Tween 20, 1 mM DTT) to remove unbound ligand and to reduce non-specific binding. […] All reactions were performed in polystyrene 96-well plates in a final volume of 0.135 ml. […] The kinase concentration in the eluates was measured by qPCR.
(§2) An 11-point 3-fold serial dilution of each test compound was prepared in 100% DMSO at 100× final test concentration and subsequently diluted to 1× in the assay (final DMSO concentration=1%). Kds were determined using a compound top concentration=10,000 nM.
Binding constants (Kds) were calculated with a standard dose-response curve using the Hill equation: Response=Background+(Signal−Background)/(1+(Kd^Hill Slope/Dose^Hill Slope)). The Hill Slope was set to −1. Curves were fitted using a non-linear least square fit with the Levenberg-Marquardt algorithm.
Background: Quantitative PCR measures a nucleic acid by following its amplification.

Experiment [1] deals with NCI-H1975 cell line xenograft. Put plainly: Subcutaneous NCI-H1975 cell line xenograft model in nude mice. The class given is in vivo. To be noted: for Tumor growth inhibition (TGI, %) in NCI-H1975 xenograft model: nude mice; for Efficacy in the NCI-H1975 xenograft study (in words): Day 14. On the procedure: A representative protocol for the in vivo experiment is as follows to establish the subcutaneous NCI-H1975 cell line xenograft model in nude mice and to evaluate the in vivo therapeutic efficacy of the compounds: H1975 cells were cultured in RPMI1640 containing 10% fetal bovine serum, 1% L-glutamine, 100 U/mL penicillinG and 100 μg/mL streptomycin. Cells in logarithmic growth phase were harvested and resuspended in 1×PBS for implantation. Tumor xenografts were established by injecting tumor cells 5×10^6/mouse into the right flank by sc under sterile conditions. When the tumors reached an appropriate size (100-200 mm^3), mice were randomized into 6 mice per group (8 mice in control group). The tumors were measured using a caliper in two dimensions, length (a), and width (b). Tumor volumes were estimated from measurements of two diameters of the individual tumors as follows: Tumor Volume (mm^3)=(a×b^2)/2 The tumor sizes and animal body weights were measured twice a week. Mice were observed daily for clinical signs. Blood samples were collected 2 hours after the last treatment, plasma samples were prepared and stored at −80° C. Tumor tissues were separated, weighed, taken picture, and subsequently stored at −80° C. for further analysis. All animal experiments were performed in accordance with the Guidelines for Use and Care of Animals of the University of Traditional Medicine. The parameters for in vivo efficacy evaluation were calculated according to the guidance of SFDA. Percent T/C (%) was calculated with the following formula: T/C(%)=(TRTV/CRTV)×100%, where TRTV and CRTV stand for relative tumor volume in treatment group and vehicle control group, respectively. Relative tumor volume (RTV) was calculated using the formula: RTV=Vt/V0, where Vt represents volume on testing day, and V0 represents volume on first day of treatment. […] At the study endpoint, after blood collection, mice were practised euthanasia by cervical dislocation, the tumor tissue was collected first, then the abdominal cavity was cut open, liver and spleen were excised, and weighted after the gallblader was removed respectively. Organ weights between the treated versus the control groups were compared.

The target of another experiment is EGFR (Homo sapiens (Human), UniProt P00533). Put plainly: In vitro EGFR kinase binding assay (Kd), similar condition. On the procedure:
as §1, §2
(§3) Binding constants (Kds) were calculated with a standard dose-response curve using the Hill equation: Response=Background+(Signal−Background)/(1+(Kd^Hill Slope/Dose^Hill Slope)). The Hill Slope was set to −1. […]

A further experiment has as its target EGFR (E746-A750del) (Homo sapiens (Human), UniProt P00533, DEL746-750). The experiment is described as follows: In vitro EGFR (E746-A750del) kinase binding assay (Kd), similar condition. As to the method:
as §1, §2, §3

EGFR (T790M/L858R), sequence (P00533 25-1210 T790M/L858R): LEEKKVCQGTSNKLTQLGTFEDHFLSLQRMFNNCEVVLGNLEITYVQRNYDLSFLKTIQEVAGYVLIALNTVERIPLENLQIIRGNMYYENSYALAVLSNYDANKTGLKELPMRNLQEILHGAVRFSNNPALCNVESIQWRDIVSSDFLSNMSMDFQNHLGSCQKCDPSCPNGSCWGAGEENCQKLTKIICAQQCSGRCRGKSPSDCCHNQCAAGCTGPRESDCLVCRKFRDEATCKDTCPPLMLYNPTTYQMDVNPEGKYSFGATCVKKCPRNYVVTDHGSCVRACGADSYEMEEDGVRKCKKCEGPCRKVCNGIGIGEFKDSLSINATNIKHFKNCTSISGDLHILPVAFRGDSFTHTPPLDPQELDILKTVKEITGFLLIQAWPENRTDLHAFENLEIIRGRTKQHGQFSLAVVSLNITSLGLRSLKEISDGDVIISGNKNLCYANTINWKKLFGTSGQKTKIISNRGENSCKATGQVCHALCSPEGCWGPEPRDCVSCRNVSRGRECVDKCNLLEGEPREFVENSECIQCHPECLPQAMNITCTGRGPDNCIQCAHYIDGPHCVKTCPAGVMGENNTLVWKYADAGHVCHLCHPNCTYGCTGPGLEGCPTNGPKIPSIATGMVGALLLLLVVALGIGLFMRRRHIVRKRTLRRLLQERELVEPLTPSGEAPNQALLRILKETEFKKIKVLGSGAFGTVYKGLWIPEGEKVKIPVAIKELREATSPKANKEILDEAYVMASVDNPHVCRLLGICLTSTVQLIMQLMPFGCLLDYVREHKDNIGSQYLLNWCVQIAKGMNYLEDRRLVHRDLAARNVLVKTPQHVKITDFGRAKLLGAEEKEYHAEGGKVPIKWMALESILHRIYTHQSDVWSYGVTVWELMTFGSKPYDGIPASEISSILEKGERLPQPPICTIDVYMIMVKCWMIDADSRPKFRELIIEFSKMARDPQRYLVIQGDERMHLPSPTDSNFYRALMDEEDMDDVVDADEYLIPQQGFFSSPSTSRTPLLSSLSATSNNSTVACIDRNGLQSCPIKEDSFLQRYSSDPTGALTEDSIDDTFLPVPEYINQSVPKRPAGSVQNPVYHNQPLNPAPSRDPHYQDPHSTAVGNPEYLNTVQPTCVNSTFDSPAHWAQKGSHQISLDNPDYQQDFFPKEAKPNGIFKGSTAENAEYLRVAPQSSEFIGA
EGFR, sequence (P00533 25-1210): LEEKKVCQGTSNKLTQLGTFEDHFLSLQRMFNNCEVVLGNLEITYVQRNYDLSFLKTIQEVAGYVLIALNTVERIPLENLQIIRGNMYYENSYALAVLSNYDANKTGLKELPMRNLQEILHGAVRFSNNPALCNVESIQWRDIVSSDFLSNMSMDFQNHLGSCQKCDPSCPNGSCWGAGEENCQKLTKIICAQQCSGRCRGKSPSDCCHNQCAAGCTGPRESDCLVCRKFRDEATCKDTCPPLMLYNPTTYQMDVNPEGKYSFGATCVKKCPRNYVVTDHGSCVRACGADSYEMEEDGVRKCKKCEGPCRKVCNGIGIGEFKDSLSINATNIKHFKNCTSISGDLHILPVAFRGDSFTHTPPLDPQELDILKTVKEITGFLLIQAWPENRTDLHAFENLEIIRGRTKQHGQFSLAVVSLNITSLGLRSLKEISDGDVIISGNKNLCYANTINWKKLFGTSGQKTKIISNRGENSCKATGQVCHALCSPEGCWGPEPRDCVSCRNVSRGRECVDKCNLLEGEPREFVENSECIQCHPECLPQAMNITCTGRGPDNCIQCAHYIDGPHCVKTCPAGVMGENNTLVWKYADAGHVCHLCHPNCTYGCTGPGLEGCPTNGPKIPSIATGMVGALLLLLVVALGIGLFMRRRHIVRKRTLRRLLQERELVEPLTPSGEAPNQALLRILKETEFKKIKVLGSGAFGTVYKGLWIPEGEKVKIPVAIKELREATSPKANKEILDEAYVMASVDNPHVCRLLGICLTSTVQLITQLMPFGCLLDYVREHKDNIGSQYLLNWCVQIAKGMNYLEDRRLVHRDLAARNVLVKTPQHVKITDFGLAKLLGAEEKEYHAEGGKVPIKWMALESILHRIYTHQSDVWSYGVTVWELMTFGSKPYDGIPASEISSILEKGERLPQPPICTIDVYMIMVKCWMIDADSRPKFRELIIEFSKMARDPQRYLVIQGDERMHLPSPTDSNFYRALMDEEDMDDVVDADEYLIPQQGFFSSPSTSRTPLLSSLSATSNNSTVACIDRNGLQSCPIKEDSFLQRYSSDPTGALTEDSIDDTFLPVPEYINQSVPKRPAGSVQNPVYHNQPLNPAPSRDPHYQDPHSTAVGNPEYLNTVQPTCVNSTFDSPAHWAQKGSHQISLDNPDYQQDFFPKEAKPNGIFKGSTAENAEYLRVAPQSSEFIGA
EGFR (E746-A750del), sequence (P00533 other isoform, or with tags, fused parts or gaps del E746-A750): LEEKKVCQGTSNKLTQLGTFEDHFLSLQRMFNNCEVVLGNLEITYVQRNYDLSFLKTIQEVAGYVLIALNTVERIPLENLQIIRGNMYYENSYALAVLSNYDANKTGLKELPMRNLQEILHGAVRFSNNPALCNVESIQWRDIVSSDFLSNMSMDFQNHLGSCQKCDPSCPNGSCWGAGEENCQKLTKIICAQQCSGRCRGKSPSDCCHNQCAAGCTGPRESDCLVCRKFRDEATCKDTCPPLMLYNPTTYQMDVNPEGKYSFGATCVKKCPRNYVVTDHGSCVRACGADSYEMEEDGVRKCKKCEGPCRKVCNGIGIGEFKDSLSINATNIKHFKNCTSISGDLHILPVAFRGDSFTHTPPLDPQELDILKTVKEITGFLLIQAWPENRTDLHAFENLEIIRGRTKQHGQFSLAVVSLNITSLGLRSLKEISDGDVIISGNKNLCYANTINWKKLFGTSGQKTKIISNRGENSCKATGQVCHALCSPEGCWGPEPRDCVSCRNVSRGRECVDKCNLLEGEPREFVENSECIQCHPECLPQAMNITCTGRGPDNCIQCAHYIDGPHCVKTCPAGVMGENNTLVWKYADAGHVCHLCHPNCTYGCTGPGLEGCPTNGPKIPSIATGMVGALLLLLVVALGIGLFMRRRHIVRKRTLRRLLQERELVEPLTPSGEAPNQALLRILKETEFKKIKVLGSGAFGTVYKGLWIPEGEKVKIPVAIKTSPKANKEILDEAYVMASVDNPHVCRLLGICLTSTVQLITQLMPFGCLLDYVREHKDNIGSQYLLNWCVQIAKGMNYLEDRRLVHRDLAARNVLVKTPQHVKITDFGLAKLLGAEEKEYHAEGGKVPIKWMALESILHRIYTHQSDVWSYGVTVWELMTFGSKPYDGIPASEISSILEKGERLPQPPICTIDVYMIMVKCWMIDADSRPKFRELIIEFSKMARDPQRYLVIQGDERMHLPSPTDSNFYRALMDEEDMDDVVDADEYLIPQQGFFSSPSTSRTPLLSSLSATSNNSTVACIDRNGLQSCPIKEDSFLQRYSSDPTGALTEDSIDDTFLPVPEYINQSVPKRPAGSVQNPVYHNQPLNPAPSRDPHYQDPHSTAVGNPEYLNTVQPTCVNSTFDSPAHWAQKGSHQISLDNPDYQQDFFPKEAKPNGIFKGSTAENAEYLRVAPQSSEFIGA

Regarding `C=CC(=O)Nc1cccc(Nc2nc(Nc3ccc(N4CCN(CC)CC4)cc3OC)ncc2C(F)(F)F)c1` [Compound 10, N-[3-[[2-[4-(4-ethylpiperazin-1-yl)-2-methoxy-anilino]-5-(trifluoromethyl)pyrimidin-4-yl]amino]phenyl]prop-2-enamide], the negative logarithm of the IC50 (pIC50) (usually the negative decadic logarithm of the IC50, by convention in mol/L) in the experiment on NCI-H1975 was 6.82. The pKd – broadly, −log10 of the Kd, conventionally taken in molar units – on EGFR (T790M/L858R) was 9.55.
In the case of `C=CC(=O)Nc1cccc(Nc2nc(Nc3ccc(N4CCN(C(C)=O)CC4)cc3OC)ncc2C(F)(F)F)c1` [CO-1686, reference compound], the pIC50 in the experiment on NCI-H1975 is 6.04. The “Tumor growth inhibition (TGI, %) in NCI-H1975 xenograft model” value (from here on “Tumor growth inhibition (TGI, %)”) in experiment [1] (Day 14, 30 mg/kg) was “TGI = 83%”.
In the experiment on NCI-H1975, `C=CC(=O)Nc1cccc(Oc2nc(Nc3ccc(N4CCN(C)CC4)cc3OC)ncc2Cl)c1` [WZ4002, reference compound] had a pIC50 of 7.17.
As to `C=CC(=O)Nc1cccc(Nc2nc(Nc3ccc(N4CCN(C(C)=O)CC4)cc3)ncc2C(F)(F)F)c1` [Compound 8, N-[3-[[2-[4-(4-acetylpiperazin-1-yl)anilino]-5-(trifluoromethyl)pyrimidin-4-yl]amino]phenyl]prop-2-enamide], the pKd on EGFR (T790M/L858R) was 9.27; at EGFR, 7.08; on EGFR (E746-A750del) it was 7.59. For the same compound, in experiment [1], the “Efficacy in the NCI-H1975 xenograft study (in words)” value was “good efficacy”. Moreover, the “Tumor growth inhibition (TGI, %)” value in experiment [1] (Day 14, 30 mg/kg) is reported as “TGI = 49%”.
The compound `C=CC(=O)Nc1cccc(Nc2nc(Nc3ccc(N4CCN(CC)CC4)cc3)ncc2C(F)(F)F)c1` [Compound 9, N-[3-[[2-[4-(4-ethylpiperazin-1-yl)anilino]-5-(trifluoromethyl)pyrimidin-4-yl]amino]phenyl]prop-2-enamide] had a negative-log IC50 (pIC50) in the experiment on NCI-H1975 of more than 8.00. Moreover, the pKd at EGFR (T790M/L858R) was 10.43; at EGFR it was 7.82; at EGFR (E746-A750del), 8.40. Moreover, in experiment [1], the “Efficacy in the NCI-H1975 xenograft study (in words)” value is given as “good efficacy; also recorded: much better tumor growth inhibition compared with CO-1686”. In experiment [1] (Day 14, 6 mg/kg), the “Tumor growth inhibition (TGI, %)” value was “TGI = 76%”.
